Assays:
Assay in all cases: 33PanQinase panel
Format in all cases: biochemical
[1] = target: T1, EEF2K (Homo sapiens, UniProt O00418); conditions: read-out: Residual Activity (%)
T1 construct: purchased ProQinase
Method in brief: (§1)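 Single dose, 1 µM. Radiometric 33P kinase activity assay with final DMSO at 1%; values give residual activity as a percentage of control.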

[2] = target: T2, NEK11 (Homo sapiens, UniProt Q8NG66); conditions: NEK11, 1 µM; read-out: Residual Activity (%)
T2 construct: purchased ProQinase
Method in brief: as §1

[3] = target: T3, FGF-R4 (Homo sapiens, UniProt P22455); conditions: FGF-R4, 1 µM; read-out: Residual Activity (%)
T3 construct: purchased ProQinase
T3 sequence (P22455 22-802): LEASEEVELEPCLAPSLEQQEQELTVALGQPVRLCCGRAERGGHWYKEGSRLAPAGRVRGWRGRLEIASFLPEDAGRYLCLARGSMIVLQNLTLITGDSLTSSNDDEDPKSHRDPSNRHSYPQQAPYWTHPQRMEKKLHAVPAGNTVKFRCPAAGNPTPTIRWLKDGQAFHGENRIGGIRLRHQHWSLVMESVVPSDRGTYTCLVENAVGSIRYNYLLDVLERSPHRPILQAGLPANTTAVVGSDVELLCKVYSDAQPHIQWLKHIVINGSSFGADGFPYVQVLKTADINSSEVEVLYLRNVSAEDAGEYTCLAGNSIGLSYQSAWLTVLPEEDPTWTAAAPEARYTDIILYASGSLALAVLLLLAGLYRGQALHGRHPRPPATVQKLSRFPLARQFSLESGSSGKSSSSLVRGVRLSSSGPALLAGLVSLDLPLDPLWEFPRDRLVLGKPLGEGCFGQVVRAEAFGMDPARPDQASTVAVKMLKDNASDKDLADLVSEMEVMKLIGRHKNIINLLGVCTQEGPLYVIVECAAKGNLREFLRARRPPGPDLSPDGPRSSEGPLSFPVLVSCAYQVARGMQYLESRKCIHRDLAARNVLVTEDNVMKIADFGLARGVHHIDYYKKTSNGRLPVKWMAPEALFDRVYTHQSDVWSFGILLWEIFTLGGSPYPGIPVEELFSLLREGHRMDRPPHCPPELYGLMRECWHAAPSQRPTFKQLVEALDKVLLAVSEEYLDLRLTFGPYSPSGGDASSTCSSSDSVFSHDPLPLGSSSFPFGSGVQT
Method in brief: as §1

[4] = target: T4, EPHA7 (Homo sapiens, UniProt Q15375); conditions: EPHA7, 1 µM; read-out: Residual Activity (%)
T4 construct: purchased ProQinase
Method in brief: as §1

[5] = target: T5, JNK1 (Homo sapiens, UniProt P45983); conditions: JNK1, 1 µM; read-out: Residual Activity (%)
T5 construct: purchased ProQinase
Method in brief: as §1

[6] = target: T6, MARK2 (Homo sapiens, UniProt Q7KZI7); conditions: MARK2, 1 µM; read-out: Residual Activity (%)
T6 construct: purchased ProQinase
Method in brief: as §1

[7] = target: T7, CAMK2D (Homo sapiens, UniProt Q13557); conditions: read-out: Residual Activity (%)
T7 construct: purchased ProQinase
Method in brief: as §1

[8] = target: T8, TIE2 (Homo sapiens, UniProt Q02763); conditions: TIE2, 1 µM; read-out: Residual Activity (%)
T8 construct: purchased ProQinase
T8 sequence (Q02763 23-1124): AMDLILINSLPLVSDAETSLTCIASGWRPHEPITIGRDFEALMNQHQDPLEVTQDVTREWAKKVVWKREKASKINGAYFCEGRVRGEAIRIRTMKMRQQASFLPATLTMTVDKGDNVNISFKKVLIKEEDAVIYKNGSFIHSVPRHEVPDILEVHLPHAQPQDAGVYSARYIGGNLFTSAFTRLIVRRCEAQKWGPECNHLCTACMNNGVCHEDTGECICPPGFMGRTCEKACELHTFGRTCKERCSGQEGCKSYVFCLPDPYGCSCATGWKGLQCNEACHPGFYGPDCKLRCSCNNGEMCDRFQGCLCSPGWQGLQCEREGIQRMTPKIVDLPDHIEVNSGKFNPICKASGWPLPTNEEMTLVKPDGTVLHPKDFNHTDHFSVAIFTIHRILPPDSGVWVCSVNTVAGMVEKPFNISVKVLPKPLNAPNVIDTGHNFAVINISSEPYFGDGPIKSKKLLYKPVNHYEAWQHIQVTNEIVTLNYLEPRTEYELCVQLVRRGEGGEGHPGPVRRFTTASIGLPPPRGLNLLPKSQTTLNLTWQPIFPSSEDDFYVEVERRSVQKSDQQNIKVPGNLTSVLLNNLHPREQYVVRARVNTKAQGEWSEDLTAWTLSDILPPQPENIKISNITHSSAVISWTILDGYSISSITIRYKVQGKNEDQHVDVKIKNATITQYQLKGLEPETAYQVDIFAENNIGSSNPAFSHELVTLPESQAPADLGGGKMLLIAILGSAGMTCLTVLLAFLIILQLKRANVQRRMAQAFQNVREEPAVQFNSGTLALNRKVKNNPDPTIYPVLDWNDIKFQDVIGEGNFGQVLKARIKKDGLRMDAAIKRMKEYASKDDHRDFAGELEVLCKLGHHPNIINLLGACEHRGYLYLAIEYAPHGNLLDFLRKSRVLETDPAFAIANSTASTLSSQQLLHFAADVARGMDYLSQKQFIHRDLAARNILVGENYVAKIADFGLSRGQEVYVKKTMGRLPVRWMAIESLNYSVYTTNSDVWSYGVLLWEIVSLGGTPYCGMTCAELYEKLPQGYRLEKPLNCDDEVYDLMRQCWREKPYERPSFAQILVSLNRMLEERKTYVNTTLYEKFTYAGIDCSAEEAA
Method in brief: as §1

[9] = target: T9, Aurora-A (Homo sapiens, UniProt O14965); conditions: read-out: Residual Activity (%)
T9 construct: purchased ProQinase
Method in brief: as §1

[10] = target: T10, CSF1-R (Homo sapiens, UniProt P07333); conditions: read-out: Residual Activity (%)
T10 construct: purchased ProQinase
Method in brief: as §1

[11] = target: T11, CDK1/CycB1 (Homo sapiens, UniProt P06493); conditions: CDK1/CycB1, 1 µM; read-out: Residual Activity (%)
T11 construct: purchased ProQinase
Method in brief: as §1

[12] = target: T12, CAMKK2 (Homo sapiens, UniProt Q96RR4); conditions: CAMKK2, 1 µM; read-out: Residual Activity (%)
T12 construct: purchased ProQinase
Method in brief: as §1

[13] = target: T13, STK17A (Homo sapiens, UniProt Q9UEE5); conditions: read-out: Residual Activity (%)
T13 construct: purchased ProQinase
Method in brief: as §1

[14] = target: T14, MAPKAPK5 (Homo sapiens, UniProt Q8IW41); conditions: MAPKAPK5, 1 µM; read-out: Residual Activity (%)
T14 construct: purchased ProQinase
T14 sequence (Q8IW41 whole entry): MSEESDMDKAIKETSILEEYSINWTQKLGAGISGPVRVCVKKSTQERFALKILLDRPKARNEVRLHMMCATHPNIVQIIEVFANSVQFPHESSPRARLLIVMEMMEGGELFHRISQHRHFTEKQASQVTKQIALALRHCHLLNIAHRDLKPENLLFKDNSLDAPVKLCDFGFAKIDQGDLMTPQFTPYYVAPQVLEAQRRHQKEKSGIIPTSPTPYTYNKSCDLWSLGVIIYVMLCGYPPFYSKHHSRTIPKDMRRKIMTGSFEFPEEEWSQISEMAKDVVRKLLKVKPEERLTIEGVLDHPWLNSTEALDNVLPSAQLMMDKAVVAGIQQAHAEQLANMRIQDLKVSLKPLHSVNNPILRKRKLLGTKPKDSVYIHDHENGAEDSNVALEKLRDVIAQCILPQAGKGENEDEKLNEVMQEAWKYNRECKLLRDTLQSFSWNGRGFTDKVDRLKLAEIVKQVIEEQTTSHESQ
Method in brief: as §1

[15] = target: T15, SIK3 (Homo sapiens, UniProt Q9Y2K2); conditions: SIK3, 1 µM; read-out: Residual Activity (%)
T15 construct: purchased ProQinase
Method in brief: as §1

[16] = target: T16, TSSK1 (Homo sapiens, UniProt Q9BXA7); conditions: TSSK1, 1 µM; read-out: Residual Activity (%)
T16 construct: purchased ProQinase
T16 sequence (Q9BXA7 whole entry): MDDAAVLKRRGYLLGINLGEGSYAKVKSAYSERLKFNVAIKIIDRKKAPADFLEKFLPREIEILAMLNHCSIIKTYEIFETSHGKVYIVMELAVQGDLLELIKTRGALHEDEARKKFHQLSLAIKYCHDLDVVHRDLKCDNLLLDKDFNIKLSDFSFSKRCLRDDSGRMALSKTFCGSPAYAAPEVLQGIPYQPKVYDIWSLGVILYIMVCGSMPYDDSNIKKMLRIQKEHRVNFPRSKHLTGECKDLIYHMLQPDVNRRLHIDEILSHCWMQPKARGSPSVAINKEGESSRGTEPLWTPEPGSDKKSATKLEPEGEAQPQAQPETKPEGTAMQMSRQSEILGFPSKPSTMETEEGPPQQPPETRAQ
Method in brief: as §1

[17] = target: T17, MST2 (Homo sapiens, UniProt Q13188); conditions: MST2, 1 µM; read-out: Residual Activity (%)
T17 construct: purchased ProQinase
Method in brief: as §1

[18] = target: T18, MST1 (Homo sapiens, UniProt Q13043); conditions: MST1, 1 µM; read-out: Residual Activity (%)
T18 construct: purchased ProQinase
T18 sequence (Q13043 whole entry): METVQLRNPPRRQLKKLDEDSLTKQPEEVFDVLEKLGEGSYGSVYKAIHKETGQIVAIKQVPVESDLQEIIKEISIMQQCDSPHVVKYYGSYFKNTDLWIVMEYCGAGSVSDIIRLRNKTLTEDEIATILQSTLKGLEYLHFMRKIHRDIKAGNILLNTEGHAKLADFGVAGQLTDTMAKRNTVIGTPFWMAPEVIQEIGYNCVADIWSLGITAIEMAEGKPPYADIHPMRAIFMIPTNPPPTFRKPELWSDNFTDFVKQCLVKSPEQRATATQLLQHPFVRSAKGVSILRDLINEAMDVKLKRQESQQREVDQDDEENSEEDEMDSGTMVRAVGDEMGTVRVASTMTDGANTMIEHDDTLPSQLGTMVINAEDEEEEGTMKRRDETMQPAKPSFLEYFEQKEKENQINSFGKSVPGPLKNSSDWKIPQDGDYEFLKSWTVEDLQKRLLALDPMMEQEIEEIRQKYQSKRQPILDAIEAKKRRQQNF
Method in brief: as §1

[19] = target: T19, LRRK2 (Homo sapiens, UniProt Q5S007); conditions: LRRK2, 1 µM; read-out: Residual Activity (%)
T19 construct: purchased ProQinase
Method in brief: as §1

[20] = target: T20, B-RAF (Homo sapiens, UniProt P15056); conditions: read-out: Residual Activity (%)
T20 construct: purchased ProQinase
Method in brief: as §1

[21] = target: T21, CDK6/CycD1 (Homo sapiens, UniProt Q00534); conditions: CDK6/CycD1, 1 µM; read-out: Residual Activity (%)
T21 construct: purchased ProQinase
Method in brief: as §1

[22] = target: T22, CK1-gamma1 (Homo sapiens, UniProt Q9HCP0); conditions: CK1-gamma1, 1 µM; read-out: Residual Activity (%)
T22 construct: purchased ProQinase
Method in brief: as §1

[23] = target: T23, ZAK (Homo sapiens, UniProt Q9NYL2); conditions: read-out: Residual Activity (%)
T23 construct: purchased ProQinase
Method in brief: as §1

[24] = target: T24, MATK (Homo sapiens, UniProt P42679); conditions: read-out: Residual Activity (%)
T24 construct: purchased ProQinase
Method in brief: as §1

[25] = target: T25, TBK1 (Homo sapiens, UniProt Q9UHD2); conditions: TBK1, 1 µM; read-out: Residual Activity (%)
T25 construct: purchased ProQinase
T25 sequence (Q9UHD2 whole entry): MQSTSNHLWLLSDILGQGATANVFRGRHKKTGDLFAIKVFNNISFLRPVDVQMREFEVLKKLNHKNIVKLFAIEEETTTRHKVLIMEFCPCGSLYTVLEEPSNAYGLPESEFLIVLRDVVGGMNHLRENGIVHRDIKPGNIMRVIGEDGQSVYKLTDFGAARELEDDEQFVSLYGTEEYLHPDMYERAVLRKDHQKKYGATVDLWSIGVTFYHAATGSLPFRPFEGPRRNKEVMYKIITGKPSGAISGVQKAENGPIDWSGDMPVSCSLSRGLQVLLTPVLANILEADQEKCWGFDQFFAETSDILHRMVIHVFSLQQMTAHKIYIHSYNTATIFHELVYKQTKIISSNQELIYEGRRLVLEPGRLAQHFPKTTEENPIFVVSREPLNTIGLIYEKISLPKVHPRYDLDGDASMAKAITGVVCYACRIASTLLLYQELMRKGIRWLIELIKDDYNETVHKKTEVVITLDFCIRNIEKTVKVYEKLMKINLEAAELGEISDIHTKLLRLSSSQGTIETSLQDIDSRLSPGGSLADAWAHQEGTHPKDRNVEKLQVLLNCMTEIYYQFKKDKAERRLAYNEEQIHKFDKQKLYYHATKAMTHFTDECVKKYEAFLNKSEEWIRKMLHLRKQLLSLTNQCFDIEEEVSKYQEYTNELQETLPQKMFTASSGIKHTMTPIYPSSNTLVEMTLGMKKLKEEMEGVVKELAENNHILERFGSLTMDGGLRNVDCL
Method in brief: as §1

[26] = target: T26, MAP4K4 (Homo sapiens, UniProt O95819); conditions: MAP4K4, 1 µM; read-out: Residual Activity (%)
T26 construct: purchased ProQinase
Method in brief: as §1

[27] = target: T27, AKT2 aa107-481 (Homo sapiens, UniProt P31751); conditions: AKT2 aa107-481, 1 µM; read-out: Residual Activity (%)
T27 construct: purchased ProQinase
Method in brief: as §1

[28] = target: T28, MST3 (Homo sapiens, UniProt Q9Y6E0); conditions: MST3, 1 µM; read-out: Residual Activity (%)
T28 construct: purchased ProQinase
T28 sequence (Q9Y6E0 whole entry): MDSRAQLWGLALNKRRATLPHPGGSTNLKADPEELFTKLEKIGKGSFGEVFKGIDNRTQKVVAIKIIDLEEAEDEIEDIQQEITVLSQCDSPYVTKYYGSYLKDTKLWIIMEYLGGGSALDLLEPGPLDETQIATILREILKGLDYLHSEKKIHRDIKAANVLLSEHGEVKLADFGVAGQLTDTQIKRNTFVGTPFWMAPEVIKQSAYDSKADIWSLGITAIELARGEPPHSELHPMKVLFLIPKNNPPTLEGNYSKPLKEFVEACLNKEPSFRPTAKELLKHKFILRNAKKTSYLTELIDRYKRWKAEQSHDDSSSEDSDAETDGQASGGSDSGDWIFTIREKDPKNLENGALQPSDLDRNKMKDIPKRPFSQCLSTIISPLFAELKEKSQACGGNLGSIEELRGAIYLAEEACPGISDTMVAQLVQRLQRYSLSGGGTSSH
Method in brief: as §1

[29] = target: T29, GSK3-beta (Homo sapiens, UniProt P49841); conditions: read-out: Residual Activity (%)
T29 construct: purchased ProQinase
T29 sequence (P49841 whole entry): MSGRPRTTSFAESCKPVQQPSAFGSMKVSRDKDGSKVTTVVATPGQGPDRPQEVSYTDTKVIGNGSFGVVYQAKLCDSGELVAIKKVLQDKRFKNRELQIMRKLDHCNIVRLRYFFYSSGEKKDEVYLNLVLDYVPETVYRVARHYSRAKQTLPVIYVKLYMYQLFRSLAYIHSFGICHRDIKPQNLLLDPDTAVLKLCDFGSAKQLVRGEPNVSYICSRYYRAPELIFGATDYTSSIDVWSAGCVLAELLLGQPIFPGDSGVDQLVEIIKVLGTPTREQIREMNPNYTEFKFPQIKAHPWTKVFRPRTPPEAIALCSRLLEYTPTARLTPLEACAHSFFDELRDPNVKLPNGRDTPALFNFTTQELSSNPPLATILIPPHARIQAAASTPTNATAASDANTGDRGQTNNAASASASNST
Method in brief: as §1

Compound: COc1ccc(-c2cc(C(=O)Nc3cc(-c4c(-c5ccc(F)cc5)noc4C(C)C)ccn3)n(CC3NCC(O)C3O)c2)cc1 (centres unmarked) [29d]
- remaining activity at 1 µM [1]: 99%
- remaining activity at 1 µM [2]: 100%
- remaining activity at 1 µM [3]: 125%
- remaining activity at 1 µM [4]: 100%
- remaining activity at 1 µM [5]: 63%
- remaining activity at 1 µM [6]: 97%
- remaining activity at 1 µM [7]: 100%
- remaining activity at 1 µM [8]: 110%
- remaining activity at 1 µM [9]: 103%
- remaining activity at 1 µM [10]: 108%
- remaining activity at 1 µM [11]: 107%
- remaining activity at 1 µM [12]: 97%
- remaining activity at 1 µM [13]: 102%
- remaining activity at 1 µM [14]: 110%
- remaining activity at 1 µM [15]: 104%
- remaining activity at 1 µM [16]: 109%
- remaining activity at 1 µM [17]: 85%
- remaining activity at 1 µM [18]: 101%
- remaining activity at 1 µM [19]: 100%
- remaining activity at 1 µM [20]: 95%
- remaining activity at 1 µM [21]: 104%
- remaining activity at 1 µM [22]: 88%
- remaining activity at 1 µM [23]: 116%
- remaining activity at 1 µM [24]: 167%
- remaining activity at 1 µM [25]: 113%
- remaining activity at 1 µM [26]: 83%
- remaining activity at 1 µM [27]: 107%
- remaining activity at 1 µM [28]: 117%
- remaining activity at 1 µM [29]: 100%

From paper PMC6429214, “Design, Synthesis and Biological Evaluation of Isoxazole-Based CK1 Inhibitors Modified with Chiral Pyrrolidine Scaffolds” (Molecules, 2019)
